Results: patent US9139557B2, “Carboxamide compounds and their use as calpain inhibitors” (Abbott GmbH & Co. KG, priority 2006, dated 2015)

Assays:
Assay type in all cases: biochemical
cathepsin L = target: T1, cathepsin L (Homo sapiens, UniProt P07711); assay: Cathepsin L enzyme inhibition in vitro (kinetic fluorescence assay); conditions: Ki(cathepsin L)/Ki(calpain) ratio
T1 construct: cathepsin L—isolated from human liver; purchased Calbiochem 219402; host or cells: human liver (tissue isolate)
Method: (§1) Testing for blockade of the corresponding enzymic activities was carried out by means of kinetic fluorescence assays (excitation 390 nm, emission 460 nm).
(§2) Apparent Ki values were calculated from the experimentally determined IC50 values by the Cheng-Prussoff relation assuming a reversible competitive enzyme inhibition. The Km values of the substrates used under the assay conditions indicated above were: 90 μM (Z-Phe-Arg-AMC, cathepsin B), 10 μM (Z-Gly-Pro-Arg-AMC, cathepsin K), 2 μM (Z-Phe-Arg-AMC, cathepsin L), and 30 μM (Z-Val-Val-Arg-AMC, cathepsin S).
(§3) The indicated Ki values are averages of the inhibition constants calculated on the basis of 2 to 4 independent dose-effect plots.
(§4) • 1. Calpain I: • 20 nM calpain-I—isolated from human erythrocytes (Calbiochem #208713), 100 μM Suc-Leu-Tyr-AMC (Bachem #1-1355) as substrate in buffer with 62 mM imidazole, 0.3 mM CaCl2, 0.10% CHAPS, 0.05% BSA, 1 mM DTT at pH 7.3 and room temperature. • 2. Cathepsin B: • 0.25 nM cathepsin B—isolated from human liver (Calbiochem #219362), 100 μM Z-Phe-Arg-AMC (Bachem #1-1160) as substrate 50 mM MES, 2 mM EDTA, 0.05% Brij 35, 2.5 mM L-cysteine, pH 6.0, room temperature. • 3. Cathepsin K: • 3 nM cathepsin K—activated from recombinant human procathepsin K from E. coli (Calbiochem #342001), 10 μM Z-Gly-Pro-Arg-AMC (Biomol #P-142) as substrate in 50 mM MES, 2 mM EDTA, 0.05% Brij 35, 2.5 mM L-cysteine, pH 6.0, room temperature. • 4. Cathepsin L: • 1 nM cathepsin L—isolated from human liver (Calbiochem #219402), 2 μM Z-Phe-Arg-AMC (Bachem #1-1160) as substrate in 50 mM MES, 2 mM EDTA, 0.05% Brij 35, 2.5 mM L-cysteine, pH 6.0, room temperature. • 5. Cathepsin S: • 0.5 nM recombinant human cathepsin S from E. coli (Calbiochem #219343), 20 μM Z-Val-Val-Arg-AMC (Bachem #1-1540) as substrate in 50 mM MES, 2 mM EDTA, 0.05% Brij 35, 2.5 mM L-cysteine, pH 6.0, room temperature.

cathepsin S = target: T2, cathepsin S (Homo sapiens, UniProt P25774); assay: Cathepsin S enzyme inhibition in vitro (kinetic fluorescence assay); conditions: Ki(cathepsin S)/Ki(calpain) ratio
T2 construct: purchased Calbiochem 219343; host or cells: E. coli
Method: as §1, §2, §3, §4

cathepsin B = target: T3, cathepsin B (Homo sapiens, UniProt P07858); assay: Cathepsin B enzyme inhibition in vitro (kinetic fluorescence assay); conditions: Ki(cathepsin B)/Ki(calpain) ratio
T3 construct: cathepsin B—isolated from human liver; purchased Calbiochem 219362; host or cells: human liver (tissue isolate)
Method: as §1, §2, §3, §4

T2 sequence (P25774 115-331): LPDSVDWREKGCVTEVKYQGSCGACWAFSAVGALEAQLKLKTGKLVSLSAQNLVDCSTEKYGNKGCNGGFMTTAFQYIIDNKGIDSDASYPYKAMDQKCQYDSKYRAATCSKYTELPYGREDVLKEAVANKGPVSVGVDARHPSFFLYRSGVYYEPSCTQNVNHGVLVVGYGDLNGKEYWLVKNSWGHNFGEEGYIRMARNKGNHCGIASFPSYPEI
T1 sequence (P07711 114-333): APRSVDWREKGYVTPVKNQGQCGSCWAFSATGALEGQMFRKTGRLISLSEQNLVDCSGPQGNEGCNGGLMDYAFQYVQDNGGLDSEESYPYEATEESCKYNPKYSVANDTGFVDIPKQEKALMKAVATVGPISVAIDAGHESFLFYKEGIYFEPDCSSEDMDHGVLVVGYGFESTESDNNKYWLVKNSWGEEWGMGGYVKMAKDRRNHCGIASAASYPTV

Compound | Sel cat. L (cathepsin L) | Sel cat. S (cathepsin S) | Sel cat. B (cathepsin B)
CCCCC(NC(=O)c1cccnc1-n1cnc(-c2ccc(N3CCOCC3)cc2)c1)C(=O)C(N)=O.Cl (stereo not shown) [Example 15, N-{1-[Amino(oxo)acetyl]pentyl}-2-[4-(4-morpholin-4-ylphenyl)-1H-imidazol-1-yl]nicotinamide hydrochloride] | ++ (++ means a Ki(cathepsin L)/Ki(calpain) ratio of ≧50) | + (+ means 50≦Ki(cathepsin S)/Ki(calpain)<100) | 
CCCCC(NC(=O)c1cccnc1-n1cnc(-c2ccc(C(F)(F)F)cc2)c1)C(=O)C(N)=O.Cl (stereo not shown) [Example 17, N-{1-[Amino(oxo)acetyl]pentyl}-2-{4-[4-(trifluoromethyl)phenyl]-1H-imidazol-1-yl}nicotinamide hydrochloride] | ++ (++ means a Ki(cathepsin L)/Ki(calpain) ratio of ≧50) | + (+ means 50≦Ki(cathepsin S)/Ki(calpain)<100) | 
Cl.NC(=O)C(=O)C(Cc1ccccc1)NC(=O)c1cccnc1-n1cnc(-c2ccc(C(F)(F)F)cc2)c1 (stereo not shown) [Example 18, N-(3-Amino-1-benzyl-2,3-dioxopropyl)-2-{4-[4-(trifluoromethyl)phenyl]-1H-imidazol-1-yl}nicotinamide hydrochloride] | + (+ means 30≦Ki(cathepsin L)/Ki(calpain)<50) | ++ (++ means a Ki(cathepsin S)/Ki(calpain) ratio of ≧100) | 
CCCCC(NC(=O)c1cc(Cl)cnc1-n1ccc(-c2ccccc2)n1)C(=O)C(N)=O (stereo not shown) [Example 28, N-{1-[Amino(oxo)acetyl]pentyl}-5-chloro-2-(3-phenyl-1H-pyrazol-1-yl)nicotinamide] |  |  | + (+ means 10≦Ki(cathepsin B)/Ki(calpain)<30)
CC(C)CC(NC(=O)c1cc(Cl)cnc1-n1ccc(-c2ccccc2)n1)C(=O)C(N)=O (stereo not shown) [Example 32, N-{1-[Amino(oxo)acetyl]-3-methylbutyl}-5-chloro-2-(3-phenyl-1H-pyrazol-1-yl)nicotinamide] |  |  | + (+ means 10≦Ki(cathepsin B)/Ki(calpain)<30)
CCCCC(NC(=O)c1cccnc1-n1ccc(-c2ccc(N3CCOCC3)cc2)n1)C(=O)C(N)=O (stereo not shown) [Example 33, N-{1-[Amino(oxo)acetyl]pentyl}-2-[3-(4-morpholin-4-ylphenyl)-1H-pyrazol-1-yl]nicotinamide] |  | + (+ means 50≦Ki(cathepsin S)/Ki(calpain)<100) | + (+ means 10≦Ki(cathepsin B)/Ki(calpain)<30)
NC(=O)C(=O)C(Cc1ccccc1)NC(=O)c1cccnc1-n1ccc(-c2ccc(Cl)cc2)n1 (stereo not shown) [Example 39, N-(3-Amino-1-benzyl-2,3-dioxopropyl)-2-[3-(4-chlorophenyl)-1H-pyrazol-1-yl]nicotinamide] | ++ (++ means a Ki(cathepsin L)/Ki(calpain) ratio of ≧50) | ++ (++ means a Ki(cathepsin S)/Ki(calpain) ratio of ≧100) | 
NC(=O)C(=O)C(Cc1cccs1)NC(=O)c1cccnc1-n1ccc(-c2ccccc2)n1 (stereo not shown) [Example 40, N-[3-Amino-2,3-dioxo-1-(2-thienylmethyl)propyl]-2-(3-phenyl-1H-pyrazol-1-yl)pyridine-3-carboxamide] | ++ (++ means a Ki(cathepsin L)/Ki(calpain) ratio of ≧50) | ++ (++ means a Ki(cathepsin S)/Ki(calpain) ratio of ≧100) | + (+ means 10≦Ki(cathepsin B)/Ki(calpain)<30)
CCCCC(NC(=O)c1cccnc1-n1ccc(-c2ccc(OC)cc2)n1)C(=O)C(N)=O (stereo not shown) [Example 49, N-{1-[Amino(oxo)acetyl]pentyl}-2-[3-(4-methoxyphenyl)-1H-pyrazol-1-yl]nicotinamide] | + (+ means 30≦Ki(cathepsin L)/Ki(calpain)<50) | ++ (++ means a Ki(cathepsin S)/Ki(calpain) ratio of ≧100) | 
NC(=O)C(=O)C(Cc1cccs1)NC(=O)c1cccnc1-n1ccc(-c2ccc(F)cc2)n1 (stereo not shown) [Example 57, N-[3-Amino-2,3-dioxo-1-(2-thienylmethyl)propyl]-2-[3-(4-fluorophenyl)-1H-pyrazol-1-yl]nicotinamide] | ++ (++ means a Ki(cathepsin L)/Ki(calpain) ratio of ≧50) | ++ (++ means a Ki(cathepsin S)/Ki(calpain) ratio of ≧100) | 
CCCCC(NC(=O)c1cccnc1-n1ccc(-c2cccc(N3CCOCC3)c2)n1)C(=O)C(N)=O (stereo not shown) [Example 59, N-{1-[Amino(oxo)acetyl]pentyl}-2-[3-(3-morpholin-4-ylphenyl)-1H-pyrazol-1-yl]nicotinamide] | ++ (++ means a Ki(cathepsin L)/Ki(calpain) ratio of ≧50) | + (+ means 50≦Ki(cathepsin S)/Ki(calpain)<100) | 
Cc1cc(-c2ccccc2)nn1-c1ncccc1C(=O)NC(Cc1ccccc1)C(=O)C(N)=O (stereo not shown) [Example 61, N-(3-Amino-1-benzyl-2,3-dioxopropyl)-2-(5-methyl-3-phenyl-1H-pyrazol-1-yl)nicotinamide] |  | ++ (++ means a Ki(cathepsin S)/Ki(calpain) ratio of ≧100) | + (+ means 10≦Ki(cathepsin B)/Ki(calpain)<30)
N#Cc1ccc(-c2ccn(-c3ncccc3C(=O)NC(Cc3ccccc3)C(=O)C(N)=O)n2)cc1 (stereo not shown) [Example 62, N-(3-Amino-1-benzyl-2,3-dioxopropyl)-2-[3-(4-cyanophenyl)-1H-pyrazol-1-yl]nicotinamide] | ++ (++ means a Ki(cathepsin L)/Ki(calpain) ratio of ≧50) | ++ (++ means a Ki(cathepsin S)/Ki(calpain) ratio of ≧100) | 
NC(=O)C(=O)C(Cc1ccccc1)NC(=O)c1cccnc1-n1ccc(-c2ccc(N3CCCCC3)cc2)n1 (stereo not shown) [Example 64, N-(3-Amino-1-benzyl-2,3-dioxopropyl)-2-[3-(4-piperidin-1-ylphenyl)-1H-pyrazol-1-yl]nicotinamide] |  | ++ (++ means a Ki(cathepsin S)/Ki(calpain) ratio of ≧100) | + (+ means 10≦Ki(cathepsin B)/Ki(calpain)<30)
NC(=O)C(=O)C(Cc1ccccc1)NC(=O)c1cccnc1-n1cc2ccccc2n1 (stereo not shown) [Example 78, N-(3-Amino-1-benzyl-2,3-dioxopropyl)-2-(2H-indazol-2-yl)nicotinamide] | ++ (++ means a Ki(cathepsin L)/Ki(calpain) ratio of ≧50) | + (+ means 50≦Ki(cathepsin S)/Ki(calpain)<100) | 
Cc1cn(-c2ncccc2C(=O)NC(Cc2ccccc2)C(=O)C(N)=O)nc1-c1ccccc1 (stereo not shown) [Example 84, N-(3-Amino-1-benzyl-2,3-dioxopropyl)-2-(4-methyl-3-phenyl-1H-pyrazol-1-yl)nicotinamide] | ++ (++ means a Ki(cathepsin L)/Ki(calpain) ratio of ≧50) | ++ (++ means a Ki(cathepsin S)/Ki(calpain) ratio of ≧100) | + (+ means 10≦Ki(cathepsin B)/Ki(calpain)<30)
NC(=O)C(=O)C(Cc1ccccc1)NC(=O)c1ccccc1-n1ccc(-c2ccccc2)n1 (stereo not shown) [Example 106, N-[3-Amino-2,3-dioxo-1-(phenylmethyl)propyl]-2-(3-phenyl-1H-pyrazol-1-yl)benzamide] | + (+ means 30≦Ki(cathepsin L)/Ki(calpain)<50) | ++ (++ means a Ki(cathepsin S)/Ki(calpain) ratio of ≧100) | 
NC(=O)C(=O)C(Cc1ccccc1)NC(=O)c1cccnc1-n1cc2c(n1)-c1ccccc1OCC2 (stereo not shown) [Example 141, N-[3-Amino-2,3-dioxo-1-(phenylmethyl)propyl]-2-(4,5-dihydro-2H-Mbenzoxepino[5,4-c]pyrazol-2-yl)pyridine-3-carboxamide] | ++ (++ means a Ki(cathepsin L)/Ki(calpain) ratio of ≧50) | ++ (++ means a Ki(cathepsin S)/Ki(calpain) ratio of ≧100) | 
NC(=O)C(=O)C(Cc1ccccc1)NC(=O)c1cccnc1-n1cc(COc2ccccc2)c(-c2ccc(F)cc2)n1 (stereo not shown) [Example 179, N-[3-Amino-2,3-dioxo-1-(phenylmethyl)propyl]-2-{3-(4-fluorophenyl)-4-[(phenyloxy)methyl]-1H-pyrazol-1-yl}pyridine-3-carboxamide] | + (+ means 30≦Ki(cathepsin L)/Ki(calpain)<50) | ++ (++ means a Ki(cathepsin S)/Ki(calpain) ratio of ≧100) | 
CS(=O)(=O)NCc1cn(-c2ncccc2C(=O)NC(Cc2ccccc2)C(=O)C(N)=O)nc1-c1ccc(F)cc1 (stereo not shown) [Example 187, N-[3-Amino-2,3-dioxo-1-(phenylmethyl)propyl]-2-[3-(4-fluorophenyl)-4-{[(methylsulfonyl)amino]methyl}-1H-pyrazol-1-yl]pyridine-3-carboxamide] | + (+ means 30≦Ki(cathepsin L)/Ki(calpain)<50) | ++ (++ means a Ki(cathepsin S)/Ki(calpain) ratio of ≧100) | 
